Target: TrpRS (Escherichia coli, UniProt P00954)
Assay: ATP-PPi exchange of gamma-18O4-ATP, MALDI-TOFMS
Assay type: biochemical
Settings: 1 mM amino acid, 1 mM gamma-18O4-ATP, 5 mM MgCl2, 5 mM PPi, 20 mM Tris pH 7.5, 30 min at 25 °C

- %γ-^18O4-ATP exchange: 9.7 ± 1.6%
SMILES: N[C@@H](Cc1c[nH]c2ccccc12)C(=O)O [Trp]

Source: article PMC2710614 (Chemistry & biology, 2009)
